PubChem BioAssay (NCI)
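Cultured in 96-well plates, cells were exposed to test compound for 48 hours across five concentrations. Definition used: TGI = concentration required for complete inhibition of growth.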

Experiments:
Test in all cases: NCI tumour cell line growth inhibition, 48 h
[1] = test system: DU-145 prostate
[2] = test system: MALME-3M melanoma
[3] = test system: HCT-116 colon
[4] = test system: LOX IMVI melanoma
[5] = test system: 786-0 renal
[6] = test system: SF-539 CNS
[7] = test system: HOP-62 NSCLC
[8] = test system: TK-10 renal
[9] = test system: RPMI-8226 leukemia
[10] = test system: SNB-75 CNS

SMILES | TGI [1] [µM] | TGI [2] [µM] | TGI [3] [µM] | TGI [4] [µM] | TGI [5] [µM] | TGI [6] [µM] | TGI [7] [µM] | TGI [8] [µM] | TGI [9] [µM] | TGI [10] [µM]
c1ccc2c(c1)ncn2C1CCCCO1 (stereo not given) | > 100 | > 100 | > 100 | > 100 | > 100 | > 100 | > 100 | > 100 | > 100 | > 100
CSc1ccc(NC(=S)NN(C)C)cc1 | > 10 | > 10 | > 10 | > 10 | > 10 | > 10 | > 10 | > 10 | > 10 | > 10
CCCCN1C(=O)c2c(-c3sccc3N)sc(-c3sccc3N)c2C1=O | > 100 | > 100 | > 100 | > 100 | 21.1 | 32.8 | 41.5 | 72.5 | 55 | 34.6
CCOc1ccc(/C=N/[N+](C)(C)C)cc1OCC | > 10 | > 10 | > 10 | > 10 | > 10 | > 10 | > 10 | > 10 | > 10 | > 10
COCOc1c(C(O[Si](C)(C)C(C)(C)C)c2cnc(Sc3ccccc3)n2C)ccc(OC)c1OC (stereo not given) | > 100 | 8.93 | 2.95 | 3.23 | 4.41 | 3.71 | 3.61 | 16.3 | 4.77 | 5.77
CCCCCCCCCCCCOP(=O)(O)OCC(N)C(=O)O (stereo not given) | > 100 | > 100 | 27.6 | 64 | > 100 | 51.6 | 31.6 | 53 | 68.5 | 51.9
COC(=O)c1ccc(C)cc1/C=C1\Cc2ccc(C)cc2C1=O | 39 | 30.1 | 23.2 | 25.6 | 50 | 28.3 | 39.5 | 42.4 | 39.6 | 44
CC(=O)OCC1OC(SC2OC(COC(C)=O)C(OC(C)=O)C(OC(C)=O)C2OC(C)=O)C(OC(C)=O)C(OC(C)=O)C1OC(C)=O (stereo not given) | > 100 | > 100 | > 100 | > 100 | > 100 | > 100 | > 100 | > 100 | > 100 | > 100
CCn1cc(C(=O)O)c(=O)c2cc3c(cc21)S(=O)(=O)CC3 | > 100 | > 100 | > 100 | > 100 | > 100 | > 100 | > 100 | > 100 | > 100 | > 100
Cn1c(-c2ccccc2)cc2c3ccsc3c3ccsc3c21 | > 100 | > 100 | > 100 | > 100 | > 100 | > 100 | > 100 | > 100 | > 100 | > 100
Nc1nc(Cl)cc(NCCC2(CO)CCC2)n1 | > 100 | > 100 | > 100 | > 100 | > 100 | > 100 | > 100 | > 100 | > 100 | > 100
Nc1[nH]c(=S)nc2snnc12 | > 100 | > 100 | > 100 | > 100 | > 100 | > 100 | > 100 | > 100 | > 100 | > 100
CC(=O)O[C@@H]1C2=C(C)C=C(O2)[C@H]2O[C@]2(C)C[C@H]2C=C(C(=O)O2)[C@H](OC(C)=O)CC1[C@@]1(C)CO1 (stereo not given in full) | > 100 | 58.4 | 28.4 | 37.6 | 77.1 | 83.4 | 57.9 | > 100 | 33.9 | > 100
O=C(CCCCCCC(=O)Nc1cccnc1)NO | > 31.5 | > 100 | > 100 | 38.9 | > 100 | > 100 | > 100 | > 100 | > 29.4 | > 100
Cc1cc(C)nc(SC(C)C(=O)N/N=C/c2ccc(OCc3ccccc3)cc2)n1 (stereo not given) | > 100 | > 100 | > 100 | > 100 | > 100 | > 100 | > 100 | > 100 | 41.9 | > 100
C/C(=C/C(=O)Nn1c(Cc2ccccc2)n[nH]c1=O)C(=O)O | > 100 | > 100 | > 100 | > 100 | > 100 | > 100 | > 100 | > 100 | > 100 | > 100
O=C(/C=C/c1cc(O)c(O)cc1O)OCCc1ccccc1 | > 85.1 | 28.2 | > 58.4 | 32 | 18.6 | 44.5 | 75.4 | 17.6 | > 46 | > 100
CC(C)C1=CCC2C(=C1)CCC1C(C)(C(=O)O)CCCC21C (stereo not given) (tested in a mixture with another compound) | > 100 | > 100 | > 100 | > 100 | > 100 | > 100 | > 100 | > 100 | 70.2 | > 100
